Experimental findings from ChEMBL document CHEMBL1140031, “Cyclic voltammetric analysis of 2-styrylchromones: relationship with the antioxidant activity” (Bioorg Med Chem, 2008) are described below.

The structures appear in SMILES notation.

Holding throughout (assay type): functional
A short description of assay [1]: Antioxidant activity assessed as peroxynitrite radical scavenging activity in absence of NaHCO3.
The nature of assay [2]: Antioxidant activity assessed as singlet oxygen scavenging activity.
A short description of assay [3]: Antioxidant activity assessed as superoxide radical scavenging activity.
Assay [4] is described as follows: Antioxidant activity assessed as peroxynitrite radical scavenging activity in presence of NaHCO3.
Assay [5] in a line: Antioxidant activity assessed as H2O2 scavenging activity at 125 uM.
Assay [6] can be described thus: Antioxidant activity assessed as hypochlorous acid scavenging activity.

For orientation: IC50 means the concentration at which inhibition is half-maximal. As usually defined, the IC30 is the concentration needed for an effect of 30%.

On to `O=c1cc(/C=C/c2ccc(O)cc2)oc2ccccc12`, for which the IC50 in assay [1] turned out to be 1200 nM; in assay [4], 1230 nM. The IC30 in assay [2] is 105000 nM. Besides, the IC27 in assay [3] worked out at 56 µM.

`O=c1cc(/C=C/c2ccc(O)c(O)c2)oc2cccc(O)c12`: the IC50 was 260 nM in assay [1], 16900 nM in assay [6] and 510 nM in assay [4]. In addition, the IC30 in assay [2] was determined as 1900 nM. For the same molecule, in assay [3], the IC27 amounted to 46.6 µM. In addition, the Activity in assay [5] is 50.8%.

For `O=c1cc(/C=C/c2ccc(O)cc2)oc2cccc(O)c12`, the half-inhibitory concentration (IC50) came to 1040 nM in assay [1] and 980 nM in assay [4]. For the same molecule, the IC30 in assay [2] was found to be 40000 nM. Moreover, the Activity in assay [5] was found to be 16.9%.

Consider `O=c1cc(/C=C/c2ccccc2)oc2cc(O)cc(O)c12`, for which the IC50 in assay [1] was 46600 nM; in assay [6] it was 5700 nM; in assay [4], 40600 nM. In assay [2], the IC30 turned out to be 81300 nM. Also, the IC27 in assay [3] came to 125 µM.

As for `O=c1cc(/C=C/c2ccc(O)c(O)c2)oc2ccccc12`, the IC50 in assay [1] is 240 nM; in assay [6], 31200 nM; in assay [4] it was 440 nM. Moreover, the IC30 in assay [2] worked out at 2700 nM. Also, in assay [3], the IC27 came to 42.4 µM. The Activity in assay [5] was 44.1%.

`O=c1cc(/C=C/c2ccc(O)c(O)c2)oc2cc(O)cc(O)c12`: the IC50 turned out to be 260 nM in assay [1], 3900 nM in assay [6] and 630 nM in assay [4]. Moreover, the IC30 in assay [2] was 2300 nM. Further, the IC27 in assay [3] worked out at 28.8 µM. The Activity in assay [5] came out at 66.7%.

In the case of `O=c1cc(/C=C/c2ccccc2)oc2cc(O)ccc12`, the IC27 in assay [3] stood at 55.9 µM. In addition, the IC50 in assay [6] amounted to 72300 nM.

`O=c1cc(/C=C/c2ccc(O)cc2)oc2cc(O)ccc12`: the IC50 in assay [1] came to 1400 nM; in assay [6], 92000 nM; in assay [4], 1650 nM. Besides, the IC30 in assay [2] is 93400 nM. In assay [3], the IC27 came out at 17.7 µM.

With `O=c1cc(/C=C/c2ccc(O)cc2)oc2cc(O)cc(O)c12`, the IC50 came to 1250 nM in assay [1], 8500 nM in assay [6] and 1210 nM in assay [4]. In addition, in assay [2], the IC30 stood at 72300 nM. The Activity in assay [5] was found to be 10.6%.

As to `O=c1cc(/C=C/c2ccc(O)c(O)c2)oc2cc(O)ccc12`, the IC50 is 300 nM in assay [1], 18000 nM in assay [6] and 610 nM in assay [4]. Further, the IC30 in assay [2] came to 3700 nM. For the same molecule, in assay [3], the IC27 was 18.9 µM. Also, the Activity in assay [5] is 50.8%.
